Measurements reported in the supplement of paper PMC10307832.

How the values were obtained:
Assay in all cases: relative viability (nuclei count vs DMSO), 5 days (fraction); higher = more cells survive
[1] = compound: CS(=O)(=O)c1ccc(-c2cnc(N)c(C(=O)Nc3ccccc3)n2)cc1 [VE-821] + Cc1nc(NC(=O)N2CCC[C@H]2C(N)=O)sc1-c1ccnc(C(C)(C)C(F)(F)F)c1 [Alpelisib] (partner 2 µM)
Procedure, shortened: (§1)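 Relative viability divides the nuclei count in treated wells by that in vehicle wells. Lung cancer cell lines were seeded in 1536-well plates, dosed by pin tool the next day, and fixed and stained after 5 days in one step with final 0.05% Triton X-100, 1% formaldehyde and 1 ug/ml Hoechst. Dosing was a single drug or a fixed anchor-drug dose plus five library-drug doses (not always all listed) in √10 steps, and values are medians of duplicate plates imaged at 4×.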

[2] = compound: CS(=O)(=O)c1ccc(C(=O)Nc2ccc(Cl)c(-c3ccccn3)c2)c(Cl)c1 [Vismodegib] + C[C@@H](Oc1cc(-c2cnn(C3CCNCC3)c2)cnc1N)c1c(Cl)ccc(F)c1Cl [Crizotinib] (partner 1 µM)
Procedure, shortened: as §1

[3] = compound: CS(=O)(=O)c1ccc(C(=O)Nc2ccc(Cl)c(-c3ccccn3)c2)c(Cl)c1 [Vismodegib] + Cc1nc(NC(=O)N2CCC[C@H]2C(N)=O)sc1-c1ccnc(C(C)(C)C(F)(F)F)c1 [Alpelisib] (partner 2 µM)
Procedure, shortened: as §1

[4] = compound: N#CC[C@H](C1CCCC1)n1cc(-c2ncnc3[nH]ccc23)cn1 [Ruxolitinib] + Cc1nc(NC(=O)N2CCC[C@H]2C(N)=O)sc1-c1ccnc(C(C)(C)C(F)(F)F)c1 [Alpelisib] (partner 2 µM)
Procedure, shortened: as §1

Row | Cell Line | relative viability ([1]; first compound 0.08 µM) | relative viability ([1]; first compound 0.253 µM) | relative viability ([1]; first compound 0.8 µM) | relative viability ([1]; first compound 2.53 µM) | relative viability ([1]; first compound 8 µM) | relative viability ([2]; first compound 0.08 µM) | relative viability ([2]; first compound 0.253 µM) | relative viability ([2]; first compound 0.8 µM) | relative viability ([2]; first compound 2.53 µM) | relative viability ([2]; first compound 8 µM) | relative viability ([3]; first compound 0.08 µM) | relative viability ([3]; first compound 0.253 µM) | relative viability ([3]; first compound 0.8 µM) | relative viability ([3]; first compound 2.53 µM) | relative viability ([3]; first compound 8 µM) | relative viability ([4]; first compound 0.08 µM) | relative viability ([4]; first compound 0.253 µM) | relative viability ([4]; first compound 0.8 µM) | relative viability ([4]; first compound 2.53 µM) | relative viability ([4]; first compound 8 µM)
1 | NCI-H358 | 1.04 | 0.999 | 0.904 | 0.838 | 0.605 | 0.596 | 0.479 | 0.546 | 0.551 | 0.579 | 0.75 | 0.916 | 0.695 | 0.868 | 1.04 | 0.787 | 0.913 | 0.867 | 0.65 | 0.554
2 | NCI-H441 | 0.902 | 0.801 | 0.682 | 0.672 | 0.744 | 0.68 | 0.745 | 0.658 | 0.722 | 0.723 | 0.647 | 0.633 | 0.829 | 0.824 | 0.745 | 0.665 | 0.52 | 0.71 | 0.553 | 0.565
3 | NCI-H460 | 0.561 | 0.394 | 0.23 | 0.279 | 0.0265 | 0.985 | 0.925 | 1.04 | 0.936 | 0.999 | 0.542 | 0.495 | 0.552 | 0.434 | 0.435 | 0.567 | 0.389 | 0.567 | 0.398 | 0.306
4 | NCI-H520 | 0.953 | 1.1 | – | 0.883 | 0.784 | 0.854 | 0.662 | 0.714 | 0.679 | 0.896 | 0.917 | 0.938 | 0.988 | 0.896 | 0.987 | – | 0.837 | 1.04 | 0.988 | 0.756
5 | NCI-H596 | 0.486 | 0.458 | 0.39 | 0.511 | 0.413 | 0.986 | 0.966 | 0.929 | 1.02 | 0.965 | 0.438 | 0.448 | 0.51 | 0.472 | 0.545 | 0.521 | 0.567 | 0.559 | 0.531 | 0.547
6 | NCI-H647 | 1.17 | 1.07 | 0.944 | 0.901 | 0.424 | 1.07 | 1.13 | 1.11 | 0.969 | 1.07 | 1.09 | 0.979 | 1.15 | 0.798 | 1.45 | 1.33 | 1.11 | 1.15 | 0.941 | 0.643
7 | NCI-H650 | 1.19 | 1.25 | 0.932 | 1.19 | 1.1 | 0.61 | 0.702 | 0.687 | 0.809 | 0.865 | 1.1 | 1.14 | 1.14 | 1.04 | 1.17 | – | 1.33 | 1.23 | 0.964 | 0.667
8 | NCI-H661 | 0.693 | 0.705 | 0.573 | 0.765 | 0.559 | 0.961 | 0.94 | 1.05 | 0.93 | 1.01 | 0.263 | 0.701 | 0.71 | 0.595 | 0.84 | 0.406 | 0.623 | 0.579 | 0.583 | 0.252
9 | NCI-H727 | 0.687 | 0.683 | 0.585 | 0.551 | 0.425 | 0.733 | 0.771 | 0.576 | 0.938 | 0.857 | 0.601 | 0.563 | 0.555 | 0.529 | 0.611 | 0.604 | 0.597 | 0.874 | 0.749 | 0.338
10 | NCI-H838 | 1.1 | 0.955 | 0.911 | 0.966 | 0.907 | 0.816 | 0.787 | 0.885 | 0.821 | 0.848 | 0.904 | 0.952 | 1.09 | 0.978 | 1.02 | 0.848 | 0.973 | 0.823 | 0.618 | 0.31
11 | NCI-H1299 | 1.09 | 1.04 | 1.12 | 1.09 | 1.07 | 0.918 | 0.929 | 0.96 | 0.96 | 0.947 | 0.984 | 1.04 | 1.06 | 0.973 | 1.04 | 1.05 | 1.08 | 1.05 | 0.949 | 0.996
12 | NCI-H1355 | 0.911 | 0.803 | 0.562 | 0.8 | 0.531 | 1.04 | 0.995 | 1.02 | 1.07 | 1.09 | 0.902 | 0.882 | 0.838 | 0.853 | 0.787 | 0.793 | 0.83 | 0.85 | 0.58 | 0.612
13 | NCI-H1437 | 1.02 | 0.901 | 0.693 | 0.993 | 0.705 | 0.876 | 0.912 | 0.902 | 0.934 | 0.931 | 0.972 | 0.901 | 1.06 | 0.961 | 0.987 | 0.871 | 0.807 | 1.01 | 1.03 | 0.795
